What was measured:
total tau (Tau5) = assay: Tau immunoblot of brain lysate, insoluble fraction, total tau; type: in vivo, mouse; conditions: LMTM 15 mg/kg oral vs. vehicle; decrease (in parentheses)
Description: • (1) Pellets remaining after moving the supernatant (soluble fraction) were dispersed in 1 mL of 1M sucrose, DNase I (conc. 1 mg/mL) in RIPA buffer. • (2) After centrifugation at 4°C with a speed of 13,000 rpm for 20 minutes, the supernatant was removed. • (3) After resuspension of pellets in 2% SDS solution (1 mL per gram of tissue), the mixture was subjected to incubation at room temperature for 1 hour. • (4) After centrifugation at room temperature with a speed of 13,000 rpm for 1 minute, the supernatant (insoluble fraction) was collected and moved to a new ep-tube, and the same amount of 2X SDS Laemmli sample buffer (w/ 2.5% β-mercaptoethanol for reducing condition) was added thereto. • (5) The sample was boiled at 97°C for 5 minutes. […]

mouse Tau (mTau) = assay: Tau immunoblot of brain lysate, soluble fraction, mTau; type: in vivo; conditions: LMTM 15 mg/kg oral vs. vehicle, decrease (in parentheses)
Description: • (1) After completing administration, the mice of TauP301L-BiFC mouse model were anesthetized, followed by preparing heart laparotomy. • (2) Saline was introduced to the heart of each mouse in the TauP301L-BiFC mouse model, followed by removing vivo blood using a perfusion pump machine. • (3) After removing the blood, the brain was extracted and weighed. • (4) 1 mL RIPA buffer (w/protease/phosphatase inhibitor cocktail) was added to the extracted brain, followed by homogenization. • (5) After moving the homogenized brain lysate to an ep-tube, it was subjected to incubation in 4°C orbital shaker for 2 hours. • (6) After centrifugation at 4°C with a speed of 13,000 rpm for 20 minutes, the supernatant (soluble fraction) was collected in a new ep-tube and stored at -80°C • (7) In order to prepare an immunoblot sample, the concentration of a soluble fraction sample was quantified by Bradford protein quantification method. • (8) To each sample, RIPA buffer and 4X SDS Laemmli sample buffer (w/ 2.5% β-mercaptoethanol for reducing condition) were added to reach a final concentration of 2 mg/mL. • (9) The sample was boiled at 97°C for 5 minutes. […]

CN(C)c1ccc2c(c1)Sc1cc(N(C)C)ccc1N2.CS(=O)(=O)O.CS(=O)(=O)O [LMTM]
Insoluble fraction, Total tau (total tau (Tau5)): (42%) | Soluble fraction, Phosphorylated tau, mTau (pS199) (mouse Tau (mTau); ***p<0.001): (34%)** * | Soluble fraction, Total tau, mTau (mouse Tau (mTau); **p<0.01): (24%)** | Soluble fraction, Phosphorylated tau, mTau (pS396) (mouse Tau (mTau); *p<0.05): (27%)*

— EP4595972A1, “PEPTIDE FOR TREATING OR PREVENTING 4R TAUOPATHY” (GemVax & KAEL Co., Ltd., priority 2022, dated 2024)
